Assay results as given in patent publication US5187163A, “Anti-viral compounds, dosage forms and methods” (Baker Norton Pharmaceuticals, Inc., priority 1992, dated 1993).
Structures can show the parent of a compound that is named as a salt. Where two headings read alike, the source gives them in different places.

Assays:
Format in all cases: cell-based
HIV (TM) [1] = assay: 4 day HIV-induced syncytium inhibition assay in MT-2 cells; details: for EC100: Human immunodeficiency virus 1, MT2, 96 h, read-out: concentration for complete/full protection of MT-2 cells from the formation of syncytia; for protective effect against the development of HIV-induced syncytia: among the dimers, 4 day assay, in words
Description: An isolate of HIV (TM) was obtained from the culture supernatant of normal peripheral blood mononuclear cells infected with virus isolated from a patient with AIDS. Supernatant from H9 cells infected with HIV (TM) was aliquoted at peak reverse transcriptase activity and kept frozen at -85° C. until use. HIV (TM) infectivity assays using sequential fivefold dilutions (performed in quadruplicate) determined the infectious virus titer (Reed-Muench method) to be 10^4.5 TC ID50 per ml.
(§1) Target MT-2 cells (an HTLV-I immortalized CD4+lymphoblastoid cell line) were propagated in growth medium (D-MEM supplemented with 15% heat-inactivated fetal bovine serum, 2mM glutamine, and 1% penicillin-streptomycin).
(§2) Target MT-2 cells were exposed to DEAE-dextran (25 ug/ml, Sigma) for 20 minutes, washed and infected with HIV (TM) (MOI=0.001) at 37° C. for 1 hour. MT-2 cells (3×10^5 per ml) were placed in growth medium and transferred to a 24-well plastic tray followed by the addition of drug. The cells were carried at 37° C. in humidified air containing 5% CO2 for 14 days. Every 3-4 days, the medium was changed and fresh drug added. At each change of medium, cells and supernatants were assayed for measures of HIV expression. Uninfected and infected MT-2 cells without exposure to drug were used as controls. All cultures were performed in triplicate on two sets of experiments.
MT-2 cells were chosen because of their sensitivity to HIV infection with the formation of giant syncytia that are quantifiable. The cytopathic effect of HIV could be monitored as a function of the input virus inoculum. When MT-2 cells were monitored in a 14 day assay, a MOI of 0.001 gave rise to the formation of syncytia after 4 days (>400 per well) and peak reverse transcriptase levels by day 8.
To investigate the inhibitory effects of the drugs on HIV-induced syncytia formation, the nucleoside dimers were compared to their monomers and their combinations at multiple concentrations in a 4 day syncytium inhibition assay.

[2] = Cytotoxicity (cell viability, trypan blue exclusion) in uninfected MT-2 cells; details: human; day 14, uninfected MT-2 cells; mean of triplicate cultures from two sets of experiments; linear regression; read-out: ID50 (drug concentration required to reduce the number of uninfected MT2 cells by 50%)
Description: as §1
(§3) MT-2 cells (2×10^5 cells per ml) were exposed to multiple drug concentrations (performed in triplicate). The medium was changed every 3-4 days, followed by the addition of fresh drug. Cell viability was determined by the trypan blue exclusion method and compared to controls without drug.
(§4) The comparative HIV inhibitory effects of nucleosides and the novel nucleoside dimers are shown on Table 1. The 50% inhibitory dose (ID50) and 50% effective dose (ED50) of each compound were calculated using linear regression analysis from the results of a 14 day assay that monitored cell viability and the expression of HIV antigen by cellular fluorescence.
(§5) The growth inhibitory effects of the compounds on MT-2 cells that were not exposed to the virus were compared. According to their ID50, the compounds could be classified into three major groups. […] When the cytotoxic effects of the compounds were tested against the human cell lines H9 and U937, similar toxicity profiles were seen.
(§6) from two sets of experiments. Linear regression analysis was used to
(§7) determine the ID50 and ED50. ID50, drug concentration
(§8) required to reduce the number of uninfected MT2 cells by 50% on day 14.

MT-2 cells = assay: as above; details: uninfected MT-2 cells, in words
Description: as §1, §3, §4, §5, §6, §7, §8

HIV (TM) [3] = assay: HIV infectivity assay in MT-2 cells (HIV antigen expression by immunofluorescence, 14 days); details: for EC50: read-out: ED50 (drug concentration achieving 50% inhibition of HIV expression assessed by immunofluorescence); for CTI, cytotherapeutic index (ID50/ED50): ID50/ED50, day 14, MT-2 cells; for anti-HIV activity profile according to ED50 / cytotherapeutic index, ranking: in words
Description: An isolate of HIV (TM) was obtained from the culture supernatant of normal peripheral blood mononuclear cells infected with virus isolated from a patient with AIDS. Supernatant from H9 cells infected with HIV (TM) was aliquoted at peak reverse transcriptase activity and kept frozen at -85° C. until use.
as §1, §2
*The results are expressed as the arithmetic mean of triplicate cultures
as §6
ED50, drug concentration achieving 50% inhibition of HIV expression
assessed by immunofluorescence on day 14.

[4] = tested on: Reverse transcriptase (RT); assay: Inhibition of reverse transcriptase activity in culture supernatant of HIV-infected H9 cells; details: for Reverse Transcriptase activity in culture supernatant: H9 cells, MOI = 1.0
Description: *Target cells = H9 cells. MOI = 1.0. Media changes with the addition of
fresh drug were performed at 3-4 day intervals. Results are expressed as
CPMReverse Transcriptase activity per ml in culture supernatant. CPM
>5,000 signifies abnormal elevations in Reverse Transcriptase activity.
The results represent the mean of duplicate studies in one experiment.

[5] = Human immunodeficiency virus 1, MT2, 336 h
[6] = 1 Ug/ml, day 7, control (no drug) 11,000
[7] = 1 Ug/ml, day 11, control (no drug) 38,000
[8] = 1 Ug/ml, day 14, control (no drug) 34,000
[9] = 5 Ug/ml, day 7, control (no drug) 11,000
[10] = 5 Ug/ml, day 11, control (no drug) 38,000
[11] = 5 Ug/ml, day 14, control (no drug) 34,000

Row | SMILES | EC100 (HIV (TM) [1]) [µM] | protective effect against the development of HIV-induced syncytia (HIV (TM) [1]) | CC50 at 336 h [2] [µM] | toxicity group according to ID50 (MT-2 cells) | EC50 (HIV (TM) [3]; [5]) [µM] | CTI, cytotherapeutic index (ID50/ED50) (HIV (TM) [3]; 20160 min) | anti-HIV activity profile according to ED50 (HIV (TM) [3]) | cytotherapeutic index, ranking (HIV (TM) [3]) | Reverse Transcriptase activity in culture supernatant [4, 6] | Reverse Transcriptase activity in culture supernatant [4, 7] | Reverse Transcriptase activity in culture supernatant [4, 8] | Reverse Transcriptase activity in culture supernatant [4, 9] | Reverse Transcriptase activity in culture supernatant [4, 10] | Reverse Transcriptase activity in culture supernatant [4, 11] | further results
1 | Cc1cn([C@H]2C[C@H](N=[N+]=[N-])[C@@H](COP(=O)(OCCC#N)OC[C@@H]3CC[C@H](n4cnc5c(N)ncnc54)O3)O2)c(=O)[nH]c1=O (stereo partly shown) [AZT-P(CyE)-ddA] | 0.5 | strongest protective effect | 210 | moderate toxicity | 0.7 | 300 | most potent | highest | 6,000 CPM per ml | 43,000 CPM per ml | 36,000 CPM per ml | 1,000 CPM per ml | 4,500 CPM per ml | 12,000 CPM per ml | 
2 | Cc1cn(C2CC(N=[N+]=[N-])C(COP(=O)(O)OCC3OC(n4cc(C)c(=O)[nH]c4=O)CC3N=[N+]=[N-])O2)c(=O)[nH]c1=O (stereo not shown) [AZT-P-AZT, reference compound] |  |  | 60 | highest toxicity | 1.5 | 40 | most potent |  |  |  |  |  |  |  | 
3 | Cc1cn([C@H]2C[C@H](N=[N+]=[N-])[C@@H](COP(=O)(O)OC[C@@H]3CC[C@H](n4cnc5c(N)ncnc54)O3)O2)c(=O)[nH]c1=O [AZT-P-ddA, azido-beta-thymidine-2',3'-dideoxyadenosine phosphate ammonium salt] | 0.5 | strongest protective effect | 200 | moderate toxicity | 0.8 | 250 | most potent | highest | 1,500 CPM per ml | 12,000 CPM per ml | 26,500 CPM per ml | 500 CPM per ml | 500 CPM per ml | 500 CPM per ml | activity in RT assay compared with AZT ([4]; in words): comparable to that of AZT
4 | Cc1cn([C@H]2C[C@H](N=[N+]=[N-])[C@@H](COP(=O)(O)OC[C@@H]3CC[C@H](n4cnc5c(=O)[nH]cnc54)O3)O2)c(=O)[nH]c1=O [AZT-P-ddI, azido-β-thymidine-2',3'-dideoxyinosine phosphate ammonium salt] |  |  | 240 | moderate toxicity | 1 | 240 | most potent | highest | 1,000 CPM per ml | 3,000 CPM per ml | 10,000 CPM per ml | 1,000 CPM per ml | 1,500 CPM per ml | 25,000 CPM per ml | duration of inhibition of the enzyme (RT) ([4]; 1 ug/ml): at least 11 days
5 | Nc1ncnc2c1ncn2[C@H]1CC[C@@H](CO)O1 [ddA, 2',3'-dideoxyadenosine, reference compound] | 10 |  | 400 | least toxicity | 7 | 57 | weaker activities |  |  |  |  |  |  |  | Reverse Transcriptase activity in culture supernatant ([4]; 1 uM, day 7, control (no drug) 11,000): 5,500 CPM per ml; Reverse Transcriptase activity in culture supernatant ([4]; 1 uM, day 11, control (no drug) 38,000): 45,000 CPM per ml; Reverse Transcriptase activity in culture supernatant ([4]; 1 uM, day 14, control (no drug) 34,000): 39,500 CPM per ml; Reverse Transcriptase activity in culture supernatant ([4]; 10 uM, day 7, control (no drug) 11,000): 500 CPM per ml; Reverse Transcriptase activity in culture supernatant ([4]; 10 uM, day 11, control (no drug) 38,000): 3,000 CPM per ml; Reverse Transcriptase activity in culture supernatant ([4]; 10 uM, day 14, control (no drug) 34,000): 4,500 CPM per ml
6 | O=c1[nH]cnc2c1ncn2[C@H]1CC[C@@H](CO)O1 [ddI, 2',3'-dideoxyinsine, reference compound] |  |  | 450 | least toxicity |  | 60 | weaker activities |  |  |  |  |  |  |  | EC50 (HIV (TM) [3]; day 14, HIV-infected MT-2 cells, MOI 0.001, mean of triplicate cultures from two sets of experiments, linear regression, 20160 min): 7.5 µM
